Experiments:
[1] = system: blackgrass; test: Test C preemergence/postemergence greenhouse plant response rating 0 to 100; format: in vivo, Alopecurus myosuroides; details: for Plant response rating, Blackgrass: 0 to 100 scale
In short: (§1)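 Compounds in non-phytotoxic solvent applied preemergence to sandy loam one day after planting, postemergence at the 1–4 leaf stage, or to ~2.5 cm floodwater over silt loam.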

[2] = system: lambsquarters; test: as above; format: in vivo, Chenopodium album; details: for Plant response rating Lambsquarters: 0 to 100 scale
In short: as §1

[3] = system: sugar beet; test: as above; format: in vivo, Beta vulgaris; details: for Plant response rating, Sugar beet: 0 to 100 scale
In short: as §1

[4] = system: duck salad; test: Test C flood test plant response rating 0 to 100; format: in vivo, Heteranthera limosa; details: for Plant response rating Duck salad: flood test species listed under POSTEMERGENCE, 0 to 100 scale
In short: as §1

[5] = system: barley; test: Test B preemergence/postemergence greenhouse plant response rating 0 to 10; format: in vivo, Hordeum vulgare; details: for Plant response rating, Barley: 0 to 10 scale
In short: (§2)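 Test chemicals were sprayed onto freshly planted seed and, concurrently, onto young plants between the one and four leaf stage. After a twelve- to sixteen-day greenhouse period, each species was visually compared with untreated controls.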

[6] = system: barnyardgrass; test: Test C flood test plant response rating 0 to 100; format: in vivo, Echinochloa crus-galli; details: for Plant response rating (0 to 100), Barnyardgrass: under POSTEMERGENCE head (flood test species); for Plant response rating, Barnyardgrass: flood test species listed under POSTEMERGENCE, 0 to 100 scale
In short: as §1

[7] = system: cotton; test: Test B preemergence/postemergence greenhouse plant response rating 0 to 10; format: in vivo, Gossypium hirsutum; details: for Plant response rating, Cotton: 0 to 10 scale
In short: as §2

[8] = system: rape; test: Test C preemergence/postemergence greenhouse plant response rating 0 to 100; format: in vivo, Brassica napus; details: for Plant response rating, Rape: 0 to 100 scale
In short: as §1

[9] = system: wheat; test: as above; format: in vivo, Triticum aestivum; details: for Plant response rating, Wheat: 0 to 100 scale
In short: as §1

[10] = system: ryegrass; test: as above; format: in vivo, Lolium multiflorum; details: for Plant response rating Ryegrass: 0 to 100 scale
In short: as §1

[11] = system: corn; test: as above; format: in vivo, Zea mays; details: for Plant response rating, Corn: 0 to 100 scale
In short: as §1

[12] = system: bedstraw; test: Test B preemergence/postemergence greenhouse plant response rating 0 to 10; format: in vivo, Galium aparine; details: for Plant response rating, Bedstraw: 0 to 10 scale
In short: as §2

[13] = system: cheatgrass; test: as above; format: in vivo, Bromus secalinus; details: for Plant response rating, Cheatgrass: 0 to 10 scale
In short: as §2

[14] = system: cocklebur; test: as above; format: in vivo, Xanthium pensylvanicum; details: for Plant response rating, Cocklebur: 0 to 10 scale
In short: as §2

[15] = system: giant foxtail; test: Test C preemergence/postemergence greenhouse plant response rating 0 to 100; format: in vivo, Setaria faberii; details: for Plant response rating, Giant foxtail: 0 to 100 scale
In short: as §1

[16] = system: blackgrass; test: Test B preemergence/postemergence greenhouse plant response rating 0 to 10; format: in vivo, Alopecurus myosuroides; details: for Plant response rating, Blackgrass: 0 to 10 scale
In short: as §2

[17] = system: rice; test: as above; format: in vivo, Oryza sativa; details: 0 to 10 scale
In short: as §2

[18] = system: wild buckwheat; test: as above; format: in vivo, Polygonum convolvulus; details: 0 to 10 scale
In short: as §2

SMILES: C#CCOc1cc(-c2nn3c(c2Br)CCCC3)c(F)cc1Cl [Compound 26]
- Plant response rating, Blackgrass ([1]; POSTEMERGENCE, 62 g/ha): 40
- Plant response rating, Blackgrass ([1]; POSTEMERGENCE, 250 g/ha): 70
- Plant response rating, Blackgrass ([1]; PREEMERGENCE, 62 g/ha): 20
- Plant response rating, Blackgrass ([1]; PREEMERGENCE, 250 g/ha): 40
- Plant response rating (0 to 100), Blackgrass ([1]; PREEMERGENCE, Rate 4 g/ha): 0
- Plant response rating (0 to 100), Blackgrass ([1]; Rate 4 g/ha, POSTEMERGENCE): 30
- Plant response rating (0 to 100), Blackgrass ([1]; Rate 16 g/ha, POSTEMERGENCE): 40
- Plant response rating (0 to 100), Blackgrass ([1]; Rate 16 g/ha, PREEMERGENCE): 0
- Plant response rating Lambsquarters ([2]; POSTEMERGENCE, 62 g/ha): 100
- Plant response rating Lambsquarters ([2]; POSTEMERGENCE, 250 g/ha): 100
- Plant response rating (0 to 100), Lambsquarters ([2]; POSTEMERGENCE, Rate 4 g/ha): 80
- Plant response rating Lambsquarters ([2]; PREEMERGENCE, 62 g/ha): 100
- Plant response rating Lambsquarters ([2]; PREEMERGENCE, 250 g/ha): 100
- Plant response rating (0 to 100), Lambsquarters ([2]; PREEMERGENCE, Rate 4 g/ha): 80
- Plant response rating (0 to 100), Lambsquarters ([2]; Rate 16 g/ha, POSTEMERGENCE): 80
- Plant response rating (0 to 100), Lambsquarters ([2]; Rate 16 g/ha, PREEMERGENCE): 100
- Plant response rating, Sugar beet ([3]; POSTEMERGENCE, 62 g/ha): 100
- Plant response rating, Sugar beet ([3]; POSTEMERGENCE, 250 g/ha): 100
- Plant response rating (0 to 100), Sugar beet ([3]; POSTEMERGENCE, Rate 4 g/ha): 100
- Plant response rating, Sugar beet ([3]; PREEMERGENCE, 250 g/ha): 100
- Plant response rating (0 to 100), Sugar beet ([3]; PREEMERGENCE, Rate 4 g/ha): 0
- Plant response rating (0 to 100), Sugar beet ([3]; Rate 16 g/ha, POSTEMERGENCE): 100
- Plant response rating (0 to 100), Sugar beet ([3]; Rate 16 g/ha, PREEMERGENCE): 20
- Plant response rating (0 to 100), Duck salad ([4]; POSTEMERGENCE section, flood test, Rate 4 g/ha): 55
- Plant response rating (0 to 100), Duck salad ([4]; Rate 16 g/ha, under POSTEMERGENCE head (flood test species)): 60
- Plant response rating Duck salad ([4]; 62 g/ha): 70
- Plant response rating Duck salad ([4]; 250 g/ha): 90
- Plant response rating (0 to 10 scale), Barley ([5]; POSTEMERGENCE, Rate 50 g/ha): 4
- Plant response rating, Barley ([5]; POSTEMERGENCE, Rate 200 g/ha): 6
- Plant response rating, Barley ([5]; PREEMERGENCE, Rate 50 g/ha): 0
- Plant response rating, Barley ([5]; Rate 200 g/ha, PREEMERGENCE): 1
- Plant response rating (0 to 100), Barnyardgrass ([6]; Rate 4 g/ha): 100
- Plant response rating (0 to 100), Barnyardgrass ([6]; Rate 16 g/ha): 100
- Plant response rating, Barnyardgrass ([6]; 62 g/ha): 100
- Plant response rating, Barnyardgrass ([6]; 250 g/ha): 100
- Plant response rating (0 to 10 scale), Cotton ([7]; POSTEMERGENCE, Rate 50 g/ha): 10
- Plant response rating, Cotton ([7]; POSTEMERGENCE, Rate 200 g/ha): 10
- Plant response rating, Cotton ([7]; PREEMERGENCE, Rate 50 g/ha): 3
- Plant response rating, Cotton ([7]; Rate 200 g/ha, PREEMERGENCE): 9
- Plant response rating, Rape ([8]; POSTEMERGENCE, 62 g/ha): 100
- Plant response rating, Rape ([8]; POSTEMERGENCE, 250 g/ha): 100
- Plant response rating (0 to 100), Rape ([8]; POSTEMERGENCE, Rate 4 g/ha): 80
- Plant response rating, Rape ([8]; PREEMERGENCE, 62 g/ha): 20
- Plant response rating, Rape ([8]; PREEMERGENCE, 250 g/ha): 30
- Plant response rating (0 to 100), Rape ([8]; PREEMERGENCE, Rate 4 g/ha): 0
- Plant response rating (0 to 100), Rape ([8]; Rate 16 g/ha, POSTEMERGENCE): 90
- Plant response rating (0 to 100), Rape ([8]; Rate 16 g/ha, PREEMERGENCE): 0
- Plant response rating, Wheat ([9]; POSTEMERGENCE, 62 g/ha): 40
- Plant response rating, Wheat ([9]; POSTEMERGENCE, 250 g/ha): 60
- Plant response rating (0 to 100), Wheat ([9]; POSTEMERGENCE, Rate 4 g/ha): 20
- Plant response rating, Wheat ([9]; PREEMERGENCE, 250 g/ha): 10
- Plant response rating (0 to 100), Wheat ([9]; PREEMERGENCE, Rate 4 g/ha): 0
- Plant response rating (0 to 100), Wheat ([9]; Rate 16 g/ha, POSTEMERGENCE): 20
- Plant response rating (0 to 100), Wheat ([9]; Rate 16 g/ha, PREEMERGENCE): 0
- Plant response rating Ryegrass ([10]; POSTEMERGENCE, 62 g/ha): 30
- Plant response rating Ryegrass ([10]; POSTEMERGENCE, 250 g/ha): 50
- Plant response rating (0 to 100), Ryegrass ([10]; POSTEMERGENCE, Rate 4 g/ha): 20
- Plant response rating Ryegrass ([10]; PREEMERGENCE, 62 g/ha): 0
- Plant response rating Ryegrass ([10]; PREEMERGENCE, 250 g/ha): 20
- Plant response rating (0 to 100), Ryegrass ([10]; PREEMERGENCE, Rate 4 g/ha): 0
- Plant response rating (0 to 100), Ryegrass ([10]; Rate 16 g/ha, POSTEMERGENCE): 20
- Plant response rating (0 to 100), Ryegrass ([10]; Rate 16 g/ha, PREEMERGENCE): 0
- Plant response rating, Corn ([11]; POSTEMERGENCE, 62 g/ha): 50
- Plant response rating, Corn ([11]; POSTEMERGENCE, 250 g/ha): 50
- Plant response rating, Corn ([11]; PREEMERGENCE, 62 g/ha): 0
- Plant response rating, Corn ([11]; PREEMERGENCE, 250 g/ha): 30
- Plant response rating (0 to 100), Corn ([11]; PREEMERGENCE, Rate 4 g/ha): 0
- Plant response rating (0 to 100), Corn ([11]; Rate 4 g/ha, POSTEMERGENCE): 30
- Plant response rating (0 to 100), Corn ([11]; Rate 16 g/ha, POSTEMERGENCE): 40
- Plant response rating (0 to 100), Corn ([11]; Rate 16 g/ha, PREEMERGENCE): 0
- Plant response rating (0 to 10 scale), Bedstraw ([12]; POSTEMERGENCE, Rate 50 g/ha): 9
- Plant response rating, Bedstraw ([12]; POSTEMERGENCE, Rate 200 g/ha): 9
- Plant response rating, Bedstraw ([12]; PREEMERGENCE, Rate 50 g/ha): 10
- Plant response rating, Bedstraw ([12]; Rate 200 g/ha, PREEMERGENCE): 10
- Plant response rating (0 to 10 scale), Cheatgrass ([13]; POSTEMERGENCE, Rate 50 g/ha): 5
- Plant response rating, Cheatgrass ([13]; POSTEMERGENCE, Rate 200 g/ha): 7
- Plant response rating, Cheatgrass ([13]; PREEMERGENCE, Rate 50 g/ha): 6
- Plant response rating, Cheatgrass ([13]; Rate 200 g/ha, PREEMERGENCE): 7
- Plant response rating (0 to 10 scale), Cocklebur ([14]; POSTEMERGENCE, Rate 50 g/ha): 10
- Plant response rating, Cocklebur ([14]; POSTEMERGENCE, Rate 200 g/ha): 10
- Plant response rating, Cocklebur ([14]; PREEMERGENCE, Rate 50 g/ha): 1
- Plant response rating, Cocklebur ([14]; Rate 200 g/ha, PREEMERGENCE): 9
- Plant response rating, Giant foxtail ([15]; POSTEMERGENCE, 62 g/ha): 50
- Plant response rating, Giant foxtail ([15]; POSTEMERGENCE, 250 g/ha): 70
- Plant response rating (0 to 100), Giant foxtail ([15]; POSTEMERGENCE, Rate 4 g/ha): 0
- Plant response rating, Giant foxtail ([15]; PREEMERGENCE, 62 g/ha): 70
- Plant response rating, Giant foxtail ([15]; PREEMERGENCE, 250 g/ha): 100
- Plant response rating (0 to 100), Giant foxtail ([15]; PREEMERGENCE, Rate 4 g/ha): 0
- Plant response rating (0 to 100), Giant foxtail ([15]; Rate 16 g/ha, POSTEMERGENCE): 40
- Plant response rating (0 to 100), Giant foxtail ([15]; Rate 16 g/ha, PREEMERGENCE): 30
- Plant response rating (0 to 10 scale), Blackgrass ([16]; POSTEMERGENCE, Rate 50 g/ha): 4
- Plant response rating, Blackgrass ([16]; POSTEMERGENCE, Rate 200 g/ha): 5
- Plant response rating, Blackgrass ([16]; PREEMERGENCE, Rate 50 g/ha): 4
- Plant response rating, Blackgrass ([16]; Rate 200 g/ha, PREEMERGENCE): 6
- Plant response rating, Rice ([17]; POSTEMERGENCE, Rate 50 g/ha): 5
- Plant response rating, Rice ([17]; POSTEMERGENCE, Rate 200 g/ha): 6
- Plant response rating, Rice ([17]; PREEMERGENCE, Rate 50 g/ha): 0
- Plant response rating, Rice ([17]; Rate 200 g/ha, PREEMERGENCE): 3
- Plant response rating, Wild buckwheat ([18]; POSTEMERGENCE, Rate 50 g/ha): 10
- Plant response rating, Wild buckwheat ([18]; POSTEMERGENCE, Rate 200 g/ha): 10
- Plant response rating, Wild buckwheat ([18]; PREEMERGENCE, Rate 50 g/ha): 7
- Plant response rating, Wild buckwheat ([18]; Rate 200 g/ha, PREEMERGENCE): 10

Source: patent publication US6358885B1, “Substituted phenylheterocyclic herbicides” (Mississippi State University, priority 1992, dated 2002)
